{"source": "patent US6537758B2", "about": "“Method for isolating nucleic acid from micronuclei separated from a cell” (The Salk Institute for Biological Studies, priority 1995, dated 2003)", "origin": "cited, not measured here", "key": {"[1]": {"test_system": "cells containing DMs"}, "[2]": {"test_system": "HL60 cells", "details": "low concentrations of HU"}, "[3]": {"test_system": "mouse cells with unstably amplified dihydrofolate reductase (DHFR) genes"}}, "data": [{"smiles": "NC(=O)NO", "note": "[hydroxyurea]", "values": [{"measurement": "elimination of genes amplified on DMs", "setting": "[1]; HU at concentrations that do not inhibit DNA synthesis or ribonucleotide reductase", "value": "eliminated"}, {"measurement": "micronuclei formation", "setting": "[1]; HU-treatment of cells containing DMs", "value": "increase in micronuclei formation"}, {"measurement": "c-myc expression", "setting": "[2]", "value": "decreased c-myc expression"}, {"measurement": "differentiation", "setting": "[2]", "value": "induction of differentiation"}, {"measurement": "number of c-myc-containing DMs", "setting": "[2]", "value": "reduced the number of c-myc-containing DMs"}, {"measurement": "rate of loss of unstably amplified DHFR genes", "setting": "[3]", "value": "increase the rate of loss"}]}]}
